# Test results reported in EPA's ToxRefDB 2.
# Legend:
# rat [1] = conditions: Subchronic oral toxicity in rodents, sprague dawley, Gavage/Intubation, dose end: 14 week, group: systemic
# mouse [2] = conditions: Prenatal developmental toxicity study, other, Oral, Gavage/Intubation, dose end: 15 GD
# rat [3] = conditions: Prenatal developmental toxicity study, sprague dawley, Oral, Gavage/Intubation, dose end: 17 GD
# rat [4] = conditions: Subchronic oral toxicity in rodents, sprague dawley, Feed, dose end: 90 day, group: systemic, systemic / in life observation / body weight / body weight gain + systemic / pathology microscopic / liver / hypertrophy + systemic / …
# rat [5] = conditions: Multigenerational reproductive toxicity study, sprague dawley, Oral, Feed, dose end: 2 generation
# mouse [6] = conditions: Carcinogenicity, cd1, Oral, Feed, dose end: 105 week, group: systemic
# dog [7] = conditions: Chronic toxicity, beagle, Oral, Capsule, dose end: 52 week, group: systemic
# rat [8] = conditions: Combined chronic toxicity/carcinogenicity; sprague dawley; Oral; Feed; dose end: 104 week; group: systemic; systemic / in life observation / body weight / body weight + systemic / in life observation / body weight / body weight gain + systemic / …
# dog [9] = conditions: Subchronic oral toxicity in nonrodent, beagle, Capsule, dose end: 14 week, group: systemic
# rabbit [10] = conditions: Prenatal developmental toxicity study, new zealand white, Oral, Gavage/Intubation, dose end: 18 GD
# mouse [11] = conditions: Carcinogenicity, cd1, Oral, Feed, dose end: 78 week, group: systemic
# rat [12] = conditions: Subchronic oral toxicity in rodents, wistar, Feed, dose end: 90 day, group: systemic
# rat [13] = conditions: Multigenerational reproductive toxicity study, wistar, Oral, Feed, dose end: 2 generation
# dog [14] = conditions: Chronic toxicity, beagle, Oral, Feed, dose end: 394 day, group: systemic
# rat [15] = conditions: Prenatal developmental toxicity study, wistar, Oral, Gavage/Intubation, dose end: 20 GD
# mouse [16] = conditions: Subchronic oral toxicity in rodents, cd1, Feed, dose end: 90 day, group: systemic, systemic / organ weight / liver / relative to body weight + systemic / organ weight / liver / absolute + systemic / clinical chemistry / …
# dog [17] = conditions: Subchronic oral toxicity in nonrodent, beagle, Feed, dose end: 98 day, group: systemic
# rat [18] = conditions: Combined chronic toxicity/carcinogenicity; other; Oral; Feed; dose end: 22 month; group: systemic; systemic / hematology / erythrocyte (rbc) count differential / erythrocyte (rbc) + systemic / hematology / hematocrit (hct) / hematocrit (…
# dog [19] = conditions: Chronic toxicity, beagle, Oral, Feed, dose end: 52 week, group: systemic
# dog [20] = conditions: Subchronic oral toxicity in nonrodent, beagle, Feed, dose end: 13 week, group: systemic, systemic / clinical chemistry / alanine aminotransferase (alt/sgpt) / alanine aminotransferase (alt/sgpt) + systemic / clinical chemistry / …
# rat [21] = conditions: Subchronic oral toxicity in rodents, sprague dawley, Feed, dose end: 90 day, group: systemic, systemic / hematology / erythrocyte (rbc) count differential / erythrocyte (rbc) + systemic / hematology / hematocrit (hct) / hematocrit (…
# rabbit [22] = conditions: Prenatal developmental toxicity study, new zealand white, Oral, Gavage/Intubation, dose end: 19 GD
# rat [23] = conditions: Subchronic oral toxicity in rodents, sprague dawley, Feed, dose end: 90 day, group: systemic
# mouse [24] = conditions: Carcinogenicity; cd1; Oral; Feed; dose end: 18 month; group: systemic; systemic / organ weight / liver / absolute + systemic / organ weight / liver / relative to body weight + systemic / pathology microscopic / …
# [25] = systemic / in life observation / clinical signs / alopecia
# [26] = systemic / pathology microscopic / kidney / calculus + systemic / pathology microscopic / kidney / hyperplasia + systemic / pathology …
# [27] = group: developmental, systemic / in life observation / body weight / fetal weight
# [28] = group: maternal, systemic / in life observation / body weight / body weight gain + systemic / in life observation / food consumption / food consumption
# [29] = group: maternal, systemic / in life observation / body weight / body weight gain + systemic / in life observation / food consumption / food consumption + …
# [30] = group: offspring, systemic / in life observation / body weight / offspring (pup) weight
# [31] = group: parental, systemic / in life observation / body weight / body weight gain + systemic / in life observation / food consumption / food consumption
# [32] = group: parental, systemic / in life observation / food consumption / food consumption
# [33] = systemic / in life observation / mortality / mortality
# [34] = systemic / organ weight / liver / absolute + systemic / organ weight / liver / relative to body weight + systemic / pathology microscopic / …
# [35] = systemic / pathology microscopic / gallbladder / discolored + systemic / pathology microscopic / gallbladder / vacuolization cytoplasmic
# [36] = systemic / hematology / anemia / anemia - nos + systemic / hematology / erythrocyte (rbc) count differential / erythrocyte (rbc) + systemic…
# [37] = group: developmental, developmental / developmental malformation / bone / incomplete ossification + developmental / developmental malformation / lung / abnormal …
# [38] = group: maternal, reproductive / reproductive performance / resorptions / resorptions + systemic / in life observation / body weight / body weight gain + …
# [39] = systemic / clinical chemistry / alanine aminotransferase (alt/sgpt) / alanine aminotransferase (alt/sgpt) + systemic / clinical chemistry / …
# [40] = systemic / hematology / hemoglobin (hgb) / hemoglobin (hgb)
# [41] = systemic / in life observation / body weight / body weight + systemic / in life observation / body weight / body weight gain + systemic / in…
# [42] = group: offspring, developmental / developmental malformation / bone / incomplete ossification + developmental / developmental landmark / preputial separation…
# [43] = group: parental, systemic / in life observation / body weight / body weight gain
# [44] = systemic / clinical chemistry / alkaline phosphatase (alp/alk) / alkaline phosphatase (alp/alk) + systemic / clinical chemistry / gamma …
# [45] = systemic / pathology microscopic / kidney / pigmentation
# [46] = group: developmental, developmental / developmental malformation / bone / incomplete ossification
# [47] = group: maternal, systemic / organ weight / liver / absolute + systemic / organ weight / liver / relative to body weight
# [48] = systemic / in life observation / body weight / body weight gain + systemic / in life observation / food consumption / food efficiency
# [49] = systemic / in life observation / body weight / body weight gain + systemic / in life observation / food consumption / food efficiency + …
# [50] = systemic / in life observation / body weight / body weight + systemic / in life observation / body weight / body weight gain + systemic / …
# [51] = group: maternal, reproductive / reproductive performance / aborted / aborted + systemic / in life observation / clinical signs / body surface staining + …
# [52] = systemic / clinical chemistry / aspartate aminotransferase (ast/sgot) / aspartate aminotransferase (ast/sgot)
compound,measurement,setting,value
c1ccc2[nH]c(-c3cscn3)nc2c1 [Thiabendazole],LEL,rat [1]; [25],25 mg/kg/day
same,NEL,rat [1]; [25],< 25 mg/kg/day
same,LOAEL,rat [1]; [26],100 mg/kg/day
same,NOAEL,rat [1]; [26],25 mg/kg/day
same,LEL,mouse [2]; [27],100 mg/kg/day
same,LOAEL,mouse [2]; [27],100 mg/kg/day
same,NEL,mouse [2]; [27],25 mg/kg/day
same,NOAEL,mouse [2]; [27],25 mg/kg/day
same,LEL,mouse [2]; [28],100 mg/kg/day
same,LOAEL,mouse [2]; [28],100 mg/kg/day
same,NEL,mouse [2]; [28],25 mg/kg/day
same,NOAEL,mouse [2]; [28],25 mg/kg/day
same,LEL,rat [3]; [27],40 mg/kg/day
same,LOAEL,rat [3]; [27],40 mg/kg/day
same,NEL,rat [3]; [27],10 mg/kg/day
same,NOAEL,rat [3]; [27],10 mg/kg/day
same,LEL,rat [3]; [28],40 mg/kg/day
same,LOAEL,rat [3]; [28],40 mg/kg/day
same,NEL,rat [3]; [29],10 mg/kg/day
same,NOAEL,rat [3]; [29],10 mg/kg/day
same,LEL,rat [4],37 mg/kg/day
same,LOAEL,rat [4],37 mg/kg/day
same,NEL,rat [4],9.4 mg/kg/day
same,NOAEL,rat [4],9.4 mg/kg/day
same,LEL,rat [5]; [30],90 mg/kg/day
same,LOAEL,rat [5]; [30],90 mg/kg/day
same,NEL,rat [5]; [30],30 mg/kg/day
same,NOAEL,rat [5]; [30],30 mg/kg/day
same,LOAEL,rat [5]; [31],30 mg/kg/day
same,NOAEL,rat [5]; [31],10 mg/kg/day
same,LEL,rat [5]; [32],10 mg/kg/day
same,NEL,rat [5]; [32],< 10 mg/kg/day
same,LOAEL,mouse [6]; systemic / in life observation / body weight / body weight gain,92 mg/kg/day
same,LEL,mouse [6]; [33],6.95 mg/kg/day
same,NEL,mouse [6]; [33],< 6.95 mg/kg/day
same,NOAEL,mouse [6]; systemic / in life observation / mortality / mortality + systemic / in life observation / body weight / body weight gain + systemic / organ …,36.5 mg/kg/day
same,LOAEL,dog [7]; [34],40 mg/kg/day
same,NOAEL,dog [7]; [34],10 mg/kg/day
same,LEL,dog [7]; [35],10 mg/kg/day
same,NEL,dog [7]; [35],< 10 mg/kg/day
same,LEL,rat [8],30.1 mg/kg/day
same,LOAEL,rat [8],30.1 mg/kg/day
same,NEL,rat [8],10.1 mg/kg/day
same,NOAEL,rat [8],10.1 mg/kg/day
same,LOAEL,dog [9]; [36],> 150 mg/kg/day
same,NEL,dog [9]; [36],35 mg/kg/day
same,NOAEL,dog [9]; [36],≥ 150 mg/kg/day
same,LEL,dog [9]; systemic / in life observation / clinical signs / emesis + systemic / pathology microscopic / gallbladder / vacuolization cytoplasmic,75 mg/kg/day
same,LEL,rabbit [10]; [37],600 mg/kg/day
same,LOAEL,rabbit [10]; [37],600 mg/kg/day
same,NEL,rabbit [10]; [37],150 mg/kg/day
same,NOAEL,rabbit [10]; [37],150 mg/kg/day
same,LEL,rabbit [10]; [38],600 mg/kg/day
same,LOAEL,rabbit [10]; [38],600 mg/kg/day
same,NEL,rabbit [10]; [38],150 mg/kg/day
same,NOAEL,rabbit [10]; [38],150 mg/kg/day
CO/N=C(/C1=NOCCO1)c1ccccc1Oc1ncnc(Oc2ccccc2Cl)c1F [Fluoxastrobin],LOAEL,mouse [11]; [39],> 776 mg/kg/day
same,NEL,mouse [11]; [39],19 mg/kg/day
same,NOAEL,mouse [11]; [39],≥ 776 mg/kg/day
same,LEL,mouse [11]; systemic / in life observation / body weight / body weight + systemic / organ weight / liver / relative to body weight,135 mg/kg/day
same,LEL,rat [12]; [40],21.5 mg/kg/day
same,NEL,rat [12]; [40],< 21.5 mg/kg/day
same,LOAEL,rat [12]; [41],580 mg/kg/day
same,NOAEL,rat [12]; [41],70.4 mg/kg/day
same,LEL,rat [13]; [42],862 mg/kg/day
same,LOAEL,rat [13]; [42],862 mg/kg/day
same,NEL,rat [13]; [42],77.4 mg/kg/day
same,NOAEL,rat [13]; [42],77.4 mg/kg/day
same,LEL,rat [13]; [43],665 mg/kg/day
same,LOAEL,rat [13]; [43],665 mg/kg/day
same,NEL,rat [13]; [43],70 mg/kg/day
same,NOAEL,rat [13]; [43],70 mg/kg/day
same,LOAEL,dog [14]; [44],7.7 mg/kg/day
same,NOAEL,dog [14]; [44],1.5 mg/kg/day
same,LEL,dog [14]; [45],0.7 mg/kg/day
same,NEL,dog [14]; [45],< 0.7 mg/kg/day
same,LEL,rat [15]; [46],300 mg/kg/day
same,LOAEL,rat [15]; [46],> 1000 mg/kg/day
same,NEL,rat [15]; [46],100 mg/kg/day
same,NOAEL,rat [15]; [46],≥ 1000 mg/kg/day
same,LEL,rat [15]; [47],1000 mg/kg/day
same,LOAEL,rat [15]; [47],> 1000 mg/kg/day
same,NEL,rat [15]; [47],300 mg/kg/day
same,NOAEL,rat [15]; [47],≥ 1000 mg/kg/day
same,LEL,mouse [16],81.1 mg/kg/day
same,LOAEL,mouse [16],> 1300 mg/kg/day
same,NEL,mouse [16],< 81.1 mg/kg/day
same,NOAEL,mouse [16],≥ 1300 mg/kg/day
same,LEL,dog [17]; [48],3 mg/kg/day
same,LOAEL,dog [17]; [49],24.2 mg/kg/day
same,NEL,dog [17]; [49],1.4 mg/kg/day
same,NOAEL,dog [17]; [49],3 mg/kg/day
COC(=O)c1cccc(C)c1S(=O)(=O)NC(=O)Nc1nc(OCC(F)(F)F)nc(N(C)C)n1 [Triflusulfuron-methyl],LEL,rat [18],30.6 mg/kg/day
same,LOAEL,rat [18],30.6 mg/kg/day
same,NEL,rat [18],4.06 mg/kg/day
same,NOAEL,rat [18],4.06 mg/kg/day
same,LEL,dog [19]; [50],26.9 mg/kg/day
same,NEL,dog [19]; [50],1 mg/kg/day
same,LOAEL,dog [19]; systemic / organ weight / liver / relative to body weight + systemic / pathology microscopic / liver / hypertrophy,95.5 mg/kg/day
same,NOAEL,dog [19]; systemic / organ weight / liver / relative to body weight + systemic / pathology microscopic / liver / hypertrophy + systemic / clinical …,27.7 mg/kg/day
same,LEL,dog [20],147 mg/kg/day
same,LOAEL,dog [20],147 mg/kg/day
same,NEL,dog [20],3.9 mg/kg/day
same,NOAEL,dog [20],3.9 mg/kg/day
same,LEL,rat [21],127 mg/kg/day
same,LOAEL,rat [21],127 mg/kg/day
same,NEL,rat [21],6.2 mg/kg/day
same,NOAEL,rat [21],6.2 mg/kg/day
same,LEL,rabbit [22]; [27],270 mg/kg/day
same,LOAEL,rabbit [22]; [27],270 mg/kg/day
same,NEL,rabbit [22]; [27],90 mg/kg/day
same,NOAEL,rabbit [22]; [27],90 mg/kg/day
same,LEL,rabbit [22]; [51],270 mg/kg/day
same,LOAEL,rabbit [22]; [51],270 mg/kg/day
same,NEL,rabbit [22]; [51],90 mg/kg/day
same,NOAEL,rabbit [22]; [51],90 mg/kg/day
same,LEL,rat [23]; [52],7.71 mg/kg/day
same,NEL,rat [23]; [52],< 7.71 mg/kg/day
same,LOAEL,rat [23]; [48],133 mg/kg/day
same,NOAEL,rat [23]; [49],6.56 mg/kg/day
same,LEL,mouse [24],349 mg/kg/day
same,LOAEL,mouse [24],349 mg/kg/day
same,NEL,mouse [24],20.9 mg/kg/day
same,NOAEL,mouse [24],20.9 mg/kg/day
